Laboratory results from US4076849A, “Control of nitrosamine formation in nitrite cured meat” (Canada Packers Limited, priority 1975, dated 1978).

How the values were obtained:
[1] = Nitrosamine content after frying cured bacon slices streaked with a soya oil solution of the aromatic secondary amine; conditions: 100 ppm
Protocol: In the case of o-methoxy-N-dodecylaminobenzene samples were tested at 100, 200 and 300 ppm levels. The controls were streaked with oil alone.

[2] = in vivo; cited from earlier work
[3] = Table III, controls (ppb): Ex 30 76.0 and 60.0, 31 29.0, 32-33 42.5, 34 32.5, 35-39 28.2, 40 17.5, 41 20.0, 42 19.1, 43-44 34.0, 45 23.0, below about 3 ppb is below accurate detection level

Row | SMILES | NITROSAMINES Test [1, 3] [ppb] | carcinogenic in tests on experimental animals [2] | further results
1 | CCCCCCCCCCCCNc1ccc(OC)cc1OC [Example 45, o,p-Dimethoxy-N-dodecylaminobenzene] | 2.5 | – | –
2 | CCCCCCCCCCCCNc1ccccc1 [Example 47, N-Dodecylaminobenzene] | – | – | NITROSAMINES Test ([1]; Table IV, controls (ppb): Ex 46 34.0, 47 76.0, 48-49 41.0, 50-54 36.2): 16.0 ppb
3 | O=NN1CCCC1 [N-nitrosopyrrolidine] | – | carcinogenic | –
4 | CCOc1ccc(NC(C)(C)C)cc1 [Example 42, p-Ethoxy-N-t-butylaminobenzene] | 2.2 | – | –
5 | CN(C)N=O [dimethylnitrosamine] | – | carcinogenic | –
